SMILES strings stand for the structures.

A word on the IC50: it is the concentration needed to halve the response being measured. A high value points to weaker potency in that assay.

Sequence of P2X7 receptor (Q99572 whole entry): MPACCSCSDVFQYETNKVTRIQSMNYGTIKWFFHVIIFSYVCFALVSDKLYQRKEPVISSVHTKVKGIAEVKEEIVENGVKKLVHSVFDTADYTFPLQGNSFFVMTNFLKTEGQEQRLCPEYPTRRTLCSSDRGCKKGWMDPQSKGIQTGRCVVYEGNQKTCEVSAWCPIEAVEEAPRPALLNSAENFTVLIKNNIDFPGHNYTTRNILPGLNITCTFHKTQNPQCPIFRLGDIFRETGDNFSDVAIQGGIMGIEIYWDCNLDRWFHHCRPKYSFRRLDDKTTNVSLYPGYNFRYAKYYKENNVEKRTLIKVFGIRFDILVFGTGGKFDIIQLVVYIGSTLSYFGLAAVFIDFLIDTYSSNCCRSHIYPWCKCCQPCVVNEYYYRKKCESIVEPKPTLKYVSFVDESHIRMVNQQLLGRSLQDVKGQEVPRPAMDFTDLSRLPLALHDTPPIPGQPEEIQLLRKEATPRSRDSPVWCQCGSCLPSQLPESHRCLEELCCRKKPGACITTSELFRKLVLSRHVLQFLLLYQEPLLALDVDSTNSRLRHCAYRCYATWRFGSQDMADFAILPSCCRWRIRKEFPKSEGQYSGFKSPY

This test addresses P2X7 receptor (Homo sapiens (Human), UniProt Q99572). The test can be described thus: P2X7 FLIPR assay: antagonism of BzATP response in 293 HEK cells stably expressing P2X7 receptor. In kind it is cell-based. The following applies: FLIPR fluorescence (Fluo-4), agonist BzATP, 293 HEK cells stably transfected with P2X7 receptor. In a few lines:
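Antagonist IC50 derived from FLIPR Tetra Fluo-4 calcium signal evoked by BzATP. Compound pre-incubation was 30 min at room temperature on P2X7-expressing HEK293 cells, seeded 24 h before in low-serum medium and dye-loaded 30 min at 37 °C then 30 min at RT.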
In the case of `O=C(NCC(c1ccc(Cl)cc1)N1CCCOCC1)c1cccc(Cl)c1Cl` (centres unmarked) [2,3-dichloro-N-(2-(4-chlorophenyl)-2-(1,4-oxazepan-4-yl)ethyl)benzamide], the IC50 came out at 0.017 µM.
On to `O=C(NCC(c1cnc(C(F)(F)F)nc1)N1CCOCC1)c1ccc(Cl)cc1Cl` (centres unmarked) [2,4-dichloro-N-(2-morpholino-2-(2-(trifluoromethyl)pyrimidin-5-yl)ethyl)benzamide], for which the IC50 turned out to be 0.012 µM. This IC50 and that of the compound before are within 1.5-fold of each other.
As for `Cc1ncc(C(CNC(=O)c2ccccc2Cl)N2CCC(F)CC2)cn1` (single isomer, unassigned; (+)) [(+)2-chloro-N-[2-(4-fluoro-1-piperidyl)-2-(2-methylpyrimidin] [(+)2-chloro-N-(2-(4-fluoropiperidin-1-yl)-2-(2-methylpyrimidin-5-yl)ethyl)benzamide], the IC50 was 0.05 µM.
Compound `Cc1ncc(C(CNC(=O)c2cccc(Cl)c2Cl)N2CCOCC2)cn1` (centres unmarked) [2,3-dichloro-N-[2-(2-methylpyrimidin-5-yl)-2-morpholino-ethy] [2,3-Dichloro-N-[2-(2-methylpyrimidin-5-yl)-2-motpholino-ethyl]benzamide] registered an IC50 of 0.021 µM.
Regarding `COc1cccc(C(=O)NCC(c2ccc(Cl)cc2)N2CCOCC2)c1Cl` (single isomer, unassigned; (-)) [(−)2-chloro-N-[2-(4-chlorophenyl)-2-morpholino-ethyl]-3-meth] [(−)2-chloro-N-(2-(4-chlorophenyl)-2-morpholinoethyl)-3-methoxybenzamide], the IC50 was found to be 0.0015 µM. Compared with the last compound, the IC50 is about 14-fold lower.
In turn, `COc1ccc(C(CNC(=O)c2cccc(Cl)c2Cl)N2CCCCC2)cc1` (centres unmarked) [2,3-Dichloro-N-[2-(4-methoxy-phenyl)-2-piperidin-1-yl-ethyl]-benzamide] returned an IC50 of 0.35 µM.
`O=C(NCC(c1ccc(C(F)(F)F)nc1)N1CCOCC1)c1cccc(Cl)c1Cl` (single isomer, unassigned; (+)) [(+)2,3-dichloro-N-[2-morpholino-2-[6-(trifluoromethyl)-3-pyr] [(+)2,3-Dichloro-N-[2-morpholino-2-[6-(trifluoromethyl)-3-pyridyl]ethyl]benzamide] registered an IC50 of 0.0055 µM.
For `Cc1ncc(C(CNC(=O)c2cccc(Cl)c2Cl)N2CCC(F)CC2)cn1` (single isomer, unassigned; (-)) [(−)2,3-dichloro-N-[2-(4-fluoro-1-piperidyl)-2-(2-methylpyrim] [(−)2,3-dichloro-N-(2-(4-fluoropiperidin-1-yl)-2-(2-methylpyrimidin-5-yl)ethyl)benzamide], the IC50 turned out to be 0.014 µM.
The compound `O=C(NCC(c1cnc(C(F)(F)F)nc1)N1CCC(F)(F)CC1)c1cc(F)cc(Cl)c1Cl` (single isomer, unassigned; (+)) [(+)2,3-dichloro-N-[2-(4,4-difluoro-1-piperidyl)-2-[2-(triflu] [(+)2,3-dichloro-5-fluoro-N-(2-(4,4-difluoropiperidin-1-yl)-2-(2-(trifluoromethyl)pyrimidin-5-yl)ethyl)benzamide] had an IC50 of 0.0049 µM.
In turn, `Cc1ncc(C(CNC(=O)c2cc(F)cc(Cl)c2Cl)N2CCC(F)(F)CC2)cn1` (single isomer, unassigned; (-)) [(−)2,3-dichloro-N-[2-(4,4-difluoro-1-piperidyl)-2-(2-methylp] [(−)2,3-dichloro-5-fluoro-N-(2-(4,4-difluoropiperidin-1-yl)-2-(2-methylpyrimidin-5-yl)ethyl)benzamide] returned a concentration for half-maximal inhibition (IC50) of 0.014 µM. This IC50 is about 2.9-fold higher than that of the compound before.
For the compound `Cc1ncc(C(CNC(=O)c2ccccc2Cl)N2CCCC(F)(F)C2)cn1` (single isomer, unassigned; (-)) [(−)2-chloro-N-[2-(3,3-difluoro-1-piperidyl)-2-(2-methylpyrim] [(−)2-chloro-N-(2-(3,3-difluoropiperidin-1-yl)-2-(2-methylpyrimidin-5-yl)ethyl)benzamide], the IC50 was 0.028 µM.
`Cc1ccccc1C(=O)NCC(c1ccc(F)cc1)N1CCOCC1` (centres unmarked) [N-[2-(4-Fluoro-phenyl)-2-morpholin-4-yl-ethyl]-2-methyl-benzamide] yielded an IC50 of 0.11 µM.
For `COc1cccc(C(=O)NCC(c2cnc(C(F)(F)F)nc2)N2CCOCC2)c1Cl` (single isomer, unassigned; (-)) [(−)2-chloro-3-methoxy-N-[2-morpholino-2-[2-(trifluoromethyl)] [(−)2-chloro-3-methoxy-N-(2-morpholino-2-(2-(trifluoromethyl)pyrimidin-5-yl)ethyl)benzamide], the IC50 came to 0.0082 µM.
Regarding `O=C(NCC(c1cnc(C(F)(F)F)nc1)N1CCC(F)(F)CC1)c1cccc(Cl)c1Cl` (centres unmarked) [2,3-dichloro-N-(2-(4,4-difluoropiperidin-1-yl)-2-(2-(trifluoromethyl)pyrimidin-5-yl)ethyl)benzamide], the IC50 was found to be 0.00065 µM.
With `COc1ccc(C(CNC(=O)c2ccccc2C)N2CCCCC2)cc1` (centres unmarked) [N-[2-(4-Methoxy-phenyl)-2-piperidin-1-yl-ethyl]-2-methyl-benzamide], the IC50 worked out at 3.9 µM.
For the compound `O=C(NCC(c1cnc(C2CC2)nc1)N1CCC(F)(F)CC1)c1ccccc1Cl` (single isomer, unassigned; (+)) [(+)2-chloro-N-[2-(2-cyclopropylpyrimidin-5-yl)-2-(4,4-difluo] [(+)2-chloro-N-(2-(2-cyclopropylpyrimidin-5-yl)-2-(4,4-difluoropiperidin-1-yl)ethyl)benzamide], the IC50 was found to be 0.003 µM.
`COc1ccc(C(=O)NCC(c2cnc(C(F)(F)F)nc2)N2CCC(F)(F)CC2)c(Cl)c1` (single isomer, unassigned; (-)) [(−)2-chloro-N-[2-(4,4-difluoro-1-piperidyl)-2-[2-(trifluorom] [(−)2-chloro-4-methoxy-N-(2-(4,4-difluoropiperidin-1-yl)-2-(2-(trifluoromethyl)pyrimidin-5-yl)ethyl)benzamide] displayed an IC50 of 0.0022 µM.
The compound `Cc1ncc(C(CNC(=O)c2c(Cl)cccc2Cl)N2CCC(F)(F)CC2)cn1` (single isomer, unassigned; (-)) [(−)2,6-dichloro-N-[2-(4,4-difluoro-1-piperidyl)-2-(2-methylp] [(−)2,6-dichloro-N-(2-(4,4-difluoropiperidin-1-yl)-2-(2-methylpyrimidin-5-yl)ethyl)benzamide] registered an IC50 of 0.022 µM.
In the case of `O=C(NCC(c1ccc(F)cc1)N1CCOCC1)c1cccc(Cl)c1Cl` (centres unmarked) [2,3-Dichloro-N-[2-(4-fluoro-phenyl)-2-morpholin-4-yl-ethyl]-benzamide], the IC50 turned out to be 0.011 µM.
For `Cc1ncc(C(CNC(=O)c2cccc(F)c2Cl)N2CCC(F)(F)CC2)cn1` (single isomer, unassigned; (+)) [(+)2-chloro-N-[2-(4,4-difluoro-1-piperidyl)-2-(2-methylpyrim] [(+)2-chloro-3-fluoro-N-(2-(4,4-difluoropiperidin-1-yl)-2-(2-methylpyrimidin-5-yl)ethyl)benzamide], the IC50 came out at 0.015 µM.
As for `Cc1ncc(C(CNC(=O)c2ccccc2Cl)N2CCOCC2)cn1` (single isomer, unassigned; (-)) [(−)2-chloro-N-[2-(2-methylpyrimidin-5-yl)-2-morpholino-ethyl] [(−)2-chloro-N-(2-(2-methylpyrimidin-5-yl)-2-morpholinoethyl)benzamide], the figure is 0.11 µM; as for `O=C(NCC(c1cnc(C(F)(F)F)nc1)N1CCC(F)(F)CC1)c1c(Cl)cc(F)cc1Cl` (single isomer, unassigned; (+)) [(+)2,6-dichloro-N-[2-(4,4-difluoro-1-piperidyl)-2-[2-(triflu] [(+)2,6-dichloro-4-fluoro-N-(2-(4,4-difluoropiperidin-1-yl)-2-(2-(trifluoromethyl)pyrimidin-5-yl)ethyl)benzamide], 0.0075 µM; as for `Cc1ncc(C(CNC(=O)c2c(Cl)cccc2Cl)N2CCC(F)(F)CC2)cn1` (single isomer, unassigned; (+)) [(+)2,6-dichloro-N-[2-(4,4-difluoro-1-piperidyl)-2-(2-methylp] [(+)2,6-dichloro-N-(2-(4,4-difluoropiperidin-1-yl)-2-(2-methylpyrimidin-5-yl)ethyl)benzamide], 0.019 µM.
For the compound `Cn1cc(C(CNC(=O)c2cccc(Cl)c2Cl)N2CCC(F)(F)CC2)cn1` (single isomer, unassigned; (+)) [(+)2,3-dichloro-N-[2-(4,4-difluoro-1-piperidyl)-2-(1-methylp] [(+)2,3-dichloro-N-(2-(4,4-difluoropiperidin-1-yl)-2-(1-methyl-1H-pyrazol-4-yl)ethyl)benzamide], the IC50 amounted to 0.012 µM.
As for `Cc1ncc(C(CNC(=O)c2cccc(Cl)c2Cl)N2CCC(=O)CC2)cn1` (centres unmarked) [2,3-Dichloro-N-(2-(2-methylpyrimidin-5-yl)-2-(4-oxopiperidin-1-yl)ethyl)benzamide], the figure is 0.019 µM; as for `O=C(NCC(c1cnc(C(F)F)nc1)N1CCOCC1)c1cccc(Cl)c1Cl` (single isomer, unassigned; (-)) [(−)2,3-dichloro-N-[2-[2-(difluoromethyl)pyrimidin-5-yl]-2-mo] [(−)2,3-dichloro-N-(2-(2-(difluoromethyl)pyrimidin-5-yl)-2-morpholinoethyl)benzamide], 0.0096 µM; as for `Cc1cccc(C(=O)NCC(c2cccnc2)N2CCOCC2)c1C` (centres unmarked) [2,3-Dimethyl-N-(2-morpholin-4-yl-2-pyridin-3-yl-ethyl)-benzamide], 2.7 µM.
Consider `Cc1ncc(C(CNC(=O)c2cccc(Cl)c2Cl)N2CCCCC2)cn1` (single isomer, unassigned; (+)) [(+)2,3-dichloro-N-[2-(2-methylpyrimidin-5-yl)-2-(1-piperidyl] [(+2,3-dichloro-N-(2-(2-methylpyrimidin-5-yl)-2-(piperidin-1-yl)ethyl)benzamide], for which the IC50 was 0.0089 µM.
As to `Cc1ncc(C(CNC(=O)c2cccc(OC(F)F)c2Cl)N2CCC(F)(F)CC2)cn1` (single isomer, unassigned; (-)) [(−)2-chloro-3-(difluoromethoxy)-N-[2-(4,4-difluoro-1-piperid] [(−)2-chloro-3-(difluoromethoxy)-N-(2-(4,4-difluoropiperidin-1-yl)-2-(2-methylpyrimidin-5-yl)ethyl)benzamide], the IC50 came out at 0.037 µM.
